# Test results taken from patent US9694090B2, “Process for preparing hyperpolarized substrates and method for MRI” (priority 2010, dated 2017).
# Columns and labels:
# [1] = Glass formation of the DNP preparation upon rapid freezing in liquid nitrogen; type: physicochemical; settings: for Glass formation upon rapid freezing in liquid nitrogen: dissolved in 12 M NaOH with radical 1; for Glass formation upon rapid freezing: with trityl radical, without addition of glass-forming agents
# Experimental: Butyric acid (11.7 mg, 0.13 mmol) was placed into an Eppendorf tube and mixed with 9.0 mg of a glycerol solution containing 39 mM of Radical 1. This preparation was 7 M with respect to butyric acid.
# Butyric anhydride (40 μl, 0.24 mmol) was added to an Eppendorf tube and mixed with 1 mg of Radical 3 in a total concentration of 15 mM. This preparation was 6.5 M with respect to butyric anhydride (which, upon hydrolysis provides a 13 M concentration in butyric acid molecules).
# Butyric acetic anhydride (36 μl, 0.28 mmol) was added to an Eppendorf tube and mixed with 0.85 mg of acid form of Radical 3 in a total concentration of 15 mM. This preparation was 7.5 M with respect to butyric acetic acid.
# Li-acetoacetate (22.4 mg, 0.21 mmol) was added to an Eppendorf tube and mixed with 28 μl of a DMSO preparation (25 mM Radical 3 and 0.8 mM 3-Gd). This preparation was 4 M with respect to Li-acetoacetate.
# To an Eppendorf tube was added diketene (9.6 mg, 0.11 mmol) and mixed with 4.7 mg of a DMSO preparation of Radical 3 (45 mM) and 3-Gd (1.5 mM). This preparation was 8.5 M with respect to diketene.
# Ethyl acetoacetate (45 μl, 0.34 mmol) was added to an Eppendorf tube and mixed with acid form of Radical 2 (0.7 mg, 0.65 μmol) in a total concentration of 15 mM. This preparation was 8 M with respect to ethyl acetoacetate.
# Cis-aconitic acid (18.6 mg, 0.11 mmol) was added to an Eppendorf tube and mixed with a 32.5 μl DMSO preparation (25 mM Radical 3 and 0.8 mM 3-Gd). This preparation was 2.5 M with respect to cis-aconitic acid.
# Cis-aconitic anhydride (188 mg, 1.2 mmol) was added to an Eppendorf tube and mixed with 2.85 mg (2 μmol) of Radical 1 and 0.98 mg of a 83 μmol/g solution of 3-Gd. This preparation was 9 M with respect to cis-aconitic anhydride.
# Succinic acid (42.1 mg, 0.35 mmol) was added to an Eppendorf tube and mixed and mixed with 92 mg of a DMSO preparation (20 mM Radical 3 and 0.8 mM 3-Gd). This preparation was 4 M with respect to succinic acid.
# Succinic anhydride (21.5 mg, 0.21 mmol) was added to an Eppendorf tube and mixed with 21.8 mg of a DMSO solution of Radical 3 (30 mM) and of 3-Gd (1 mM). This preparation was 6 M with respect to succinic anhydride.
# Succinic-(1)-ethyl ester (111 mg, 0.75 mmol) was added to an Eppendorf tube and mixed with the carboxylic acid form of Radical 2 (2.4 mg, 1.5 μmol) and 3-Gd (3.4 μl of a 14.5 mM solution in water). This preparation was 6 M with respect to succinic-(1)-ethyl ester.
# (§1) L-Glutamine (50.9 mg, 0.35 mmol) was added to an Eppendorf tube and dissolved in 29 μl of 12 M NaOH and mixed with 1.7 mg of radical 1 and 3-Gd (2.3 μl of a 14.5 mM water stock solution). This preparation was 4 M with respect to L-glutamine.
# [2] = Degradation / isomerisation of the substrate in DNP preparation and dissolution (NMR)
# Experimental: (§2) The entire composition from example 2a was transferred from the Eppendorf tube to a sample cup and the sample cup was inserted into a DNP polariser. The composition was hyperpolarised under DNP conditions at 1.2 K in a 3.35 T magnetic field under irradiation with microwave (93.915 GHz). The sample was hyperpolarized for 75 min.
# The sample was dissolved in 5 ml phosphate buffer pH 7.3 (40 mM+EDTA).
# The solution was collected directly into a 10 mm NMR tube and transferred to a 14.1 T magnet where a 90 degree 1D 13C-NMR spectrum was recorded.
# (§3) The sample was dissolved in 5 ml water with added NaOH (125 μl of 12 M). The solution was collected directly into a 10 mm NMR tube and transferred to a 14.1 T magnet (pH 13) where a time series of 64 five degree 1D 13C-NMR spectra were recorded with a total delay between the pulses of 3 s.
# (§4) The sample was dissolved in 5 ml water with added NaOH (200 μl of 12 M). The solution was collected directly into a 10 mm NMR tube and transferred to a 14.1 T magnet (pH 12.8) where a time series of 5 degree 1D 13C-NMR spectra were recorded with a total delay between the pulses of 3 s.
# The sample was dissolved in 5 ml 40 mM phosphate buffer pH 7.3+100 mg/l EDTA, thus resulting in an ester concentration of 20 mM. 1 ml of the ester solution was injected through a transfer line into a 10 mm NMR tube placed at 14.1 T and 37° C. The 10 mm NMR tube contained a 500 μl solution of approximately 270 U of a carboxylic-ester hydrolase from porcine liver. A time series of 10 degree 1D 13C-NMR spectra were recorded with a total delay between the pulses of 3 s.
# as §4, with “phosphate buffer (40 mM, pH 7.3)” for “water”, “30” for “NaOH (200”, “μl” for “μl of”, “M NaOH. […]” for “M).”, “magnet” for “magnet (pH 12.8)”
# (§5) The sample was dissolved in 6 ml water with added NaOH (190 μl of 12 M). The solution was collected directly into a 10 mm NMR tube and transferred to a 14.1 T magnet (pH 12.8) where a time series of 64 five degree 1D 13C-NMR spectra were recorded with a total delay between the pulses of 3 s.
# as §1
# N-acetyl-L-glutamine (57.2 mg, 0.3 mmol) was added to an Eppendorf tube and dissolved in 25.3 μl of 12 M NaOH and mixed with 1.9 mg of radical 1 and 3-Gd (2.3 μl of a 14.5 mM water stock solution).
# [3] = target: T1, acylase from porcine kidney (Sus scrofa, UniProt P37111); experiment: Enzymatic hydrolysis of the hyperpolarized N-acetyl amino acid with acylase, 13C-NMR time series; type: biochemical; settings: phosphate buffer pH 7.3, 37° C.
# T1 construct: an acylase from porcine kidney; from tissue; host or cells: porcine kidney
# T1 sequence (P37111 2-407 limits assumed): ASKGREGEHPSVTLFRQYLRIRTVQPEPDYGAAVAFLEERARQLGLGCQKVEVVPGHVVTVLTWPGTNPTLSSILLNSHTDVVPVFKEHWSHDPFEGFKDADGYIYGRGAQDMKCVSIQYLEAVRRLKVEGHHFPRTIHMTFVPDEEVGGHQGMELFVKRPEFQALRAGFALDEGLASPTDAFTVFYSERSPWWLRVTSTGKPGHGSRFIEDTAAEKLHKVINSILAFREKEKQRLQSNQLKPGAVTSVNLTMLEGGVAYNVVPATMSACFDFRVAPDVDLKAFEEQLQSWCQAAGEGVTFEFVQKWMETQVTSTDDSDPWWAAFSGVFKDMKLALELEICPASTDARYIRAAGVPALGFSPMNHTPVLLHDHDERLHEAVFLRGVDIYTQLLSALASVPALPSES
# Experimental: The sample was hyperpolarized for 60 min.
# The 10 mm NMR tube contained a 1 ml phosphate solution of approximately 90 U of an acylase from porcine kidney.
# 35 mg of N-acetyl glycine (117.1 g/mol, 0.298 mmol) was dissolved in 26 μl 12 M NaOH. Heating, sonication and vortexing was applied to create a clear glassing solution. The total weight of the sample was 71 mg (50 μl weigh 65 mg). 1.05 mg Radical 1 and 1.5 μl of a 3-Gd stock solution ([…]) was added. The total N-acetyl glycine concentration in the sample was 5.5 M, the radical concentration was 13.5 mM, and the 3-Gd concentration was 0.4 mM.
# The sample was dissolved in 7 ml 40 mM phosphate buffer (40 mM, pH 7.3). […] The 10 mm NMR tube contained a 500 μl phosphate solution of approximately 230 U of an acylase (5.2 mg) from porcine kidney.
# [4] = Hydrolysis of the DNP hyperpolarized precursor on dissolution with strong base, followed by 13C-NMR time series; type: physicochemical; settings: water with added NaOH
# Experimental: as §2, with “The” for “The entire”, “1b (25 mg, 0.16 mmol)” for “2a”
# as §4, with “in 4” for “in 5”, “NaOH (50” for “NaOH (200”, “of 12M solution). The pH of the dissolved sample was 12.” for “of 12 M).”, “magnet” for “magnet (pH 12.8)”, “of 1” for “of 3”
# as §2, with “The” for “The entire”, “is (33 mg, 0.25 mmol)” for “2a”, “90” for “75”
# The sample was dissolved in 5 ml water with added NaOH (125 μl of 12M). The solution was collected directly into a 10 mm NMR tube and transferred to a 14.1 […]) T magnet where a time series of 5 degree 1D 13C-NMR spectra were recorded with a total delay between the pulses of 1 s.
# as §2, with “2b” for “2a”, “3 hours.” for “75 min.”
# as §3
# as §2, with “The” for “The entire”, “is (20.5 mg, 0.16 mmol)” for “2a”, “2 hours.” for “75 min.”
# as §4
# as §2, with “The” for “The entire”, “2b was melted on a water-bath and stirred with a magnetic stirrer. 45 mg of this preparation (0.29 mmol)” for “2a”, “90” for “75”
# as §5
# [5] = system: carboxylic-ester hydrolase from porcine liver; experiment: Enzymatic hydrolysis of the hyperpolarized ester with esterase, 13C-NMR time series; type: biochemical; settings: approximately 270 U esterase, phosphate buffer pH 7.3, 37° C.
# Source text: The ester was fully hydrolyzed to acetoacetate after 12s.
# [6] = DNP solid-state polarization signal and build-up (1.2 K, 3.35 T); settings: DNP at 1.2 K
# Experimental: To this solution 1.1 mg (0.77 μmol) radical 1 was added. […] This entire sample was hyperpolarized under DNP conditions at 1.2 K in a 3.35 T magnetic field under irradiation with microwave (93.900 GHz) until the polarization was fully build-up. The polarization was monitored in solid state with small pulse angles (5 degree) collected every 300 s.
# This entire sample was polarized under DNP conditions at 1.2 K in a 3.35 T magnetic field under irradiation with microwave (93.900 GHz) until the polarization was fully built-up. The polarization was monitored in solid state with small pulse angles (5 degree) collected every 300 s.
# To this solution 0.77 mg (0.54 μmol) radical 1 was added. […] This entire sample was polarized under DNP conditions at 1.2 K in a 3.35 T magnetic field under irradiation with microwave (93.900 GHz) until the polarization was fully built-up. The polarization was monitored in solid state with small pulse angles (5 degree) collected every 300 s.
# To this solution 1.65 mg (1.15 μmol) radical 1 was added. […] This entire sample was polarized under DNP conditions at 1.2 K in a 3.35 T magnetic field under irradiation with microwave (93.900 GHz) until the polarization was fully built-up. The polarization was monitored in solid state with small pulse angles (5 degree) collected every 300 s.
# 63.2 mg (0.33 mmol) of this sample was hyperpolarized under DNP conditions at 1.2 K in a 3.35 T magnetic field under irradiation with microwave (93.900 GHz) until the polarization was fully built-up.
# [7] = Glass formation of the DNP preparation upon rapid freezing in liquid nitrogen; type: physicochemical; settings: dissolved in heated water with Radical 1 and 3-Gd
Compound,Glass formation upon rapid freezing in liquid nitrogen [1],Glass formation upon rapid freezing [1],Polarization build-up time constant [6] [s],also measured
CC(=O)N[C@@H](CCC(N)=O)C(=O)O [N-acetyl-L-glutamine],formed a glass,,,Degradation in the DNP preparation [2]: does not degrade; Degradation in the dissolution process ([2]; pH 7.3): does not degrade; Time after which precursor was fully hydrolyzed ([3]; approximately 90 U acylase): 45 s
CCOC(=O)CC(C)=O [Ethyl acetoacetate],,formed a glass,,"Precursor hydrolyzed ([4]; after 10 s, pH 12-13): approximately 20%; Time after which ester was fully hydrolyzed [5]: 12 s"
"O=C1CCC([13C](=O)O)N1 (stereo not shown) [1-13C Pyroglutamic acid, reference compound]",formed a glass,,2000,
C=C(CC(=O)OCC)[13C](=O)OCC [1-13C Itaconate diethyl ester],,formed a glass,2120,
CCOC(=O)C1CCC(=O)N1 (stereo not shown) [1-13C pyroglutamic ethyl ester],,formed a glass,2070,"Precursor hydrolyzed ([4]; in less than 10 s, pH 11-12.6): at least 95%"
"C=C(CC(=O)O)[13C](=O)O [1-13C Itaconic acid, reference compound]",formed a glass,,1790,
CC(=O)NCC(=O)O [N-acetyl glycine],,,,Time after which precursor was fully hydrolyzed ([3]; approximately 230 U acylase): 30 s
O=C([O-])CCC(=O)C(=O)[O-].[Na+].[Na+] [2-oxoglutarate sodium salt],,,,Glass formation upon rapid freezing in liquid nitrogen [7]: formed a glass
CCO[13C](=O)C1CSC(=O)N1 (stereo not shown) [1-13C OTZ ethyl ester],,formed a glass,1925,
"O=C1N[C@H]([13C](=O)O)CS1 [1-13C OTZ, 1-13C-L-oxothiazolidine-4-carboxylic acid, reference compound]",formed a glass,,3500,
